According to patent US6497862B2, “Composition for inhibiting body odor and uses thereof” (Kabushiki Kaisha Hayashibara, priority 2000, dated 2002):
Several values for one entry are separate records, joined by “and”; a condition that tells them apart may be missing. Equal values may be shown once. Marks after values point to notes of the source that are not given here.

Tested on: 16 healthy males, ranging from 48 to 75 years old
Assay: Test on 16 volunteers: KAREI-SHU aldehydes collected from worn underwears (Experiment 8)
Assay type: in vivo, human
Protocol: In accordance with the test on volunteer in Experiment 7, the following experiment was conducted with more volunteers, while focusing particularly on the formation inhibitory effect on KAREI-SHU by trehalose. The number of volunteers used in this experiment was 16 healthy males, ranging from 48 to 75 years old. Cotton-made half-sleeve underwears with substantially the same quality were purchased, washed with only water and dried twice in a cyclic manner for volunteers' use as underwears during the test period. As for towels and gauzes used by volunteers during the test period, those with substantially the same quality were purchased, washed with only water and dried twice in a cyclic manner for use. The initiation day of the test was expressed with day 0, and when the volunteers use body-odor-care-goods such as deodorants and bath salts daily, they were asked to suspend their use two days before the initiation of the test, i.e., day −2.
Until about 10 a.m. on day 0, each volunteer was in a usual manner asked to take a bath to sufficiently wash their bodies including hairs. After bathing, they were sequentially allowed to wipe water drops on the surface of their bodies with towels, allowed to wear the prepared underwears, and allowed to spend their daily life as usual.
At about 5 p.m. on day 1, the underwears worn by the volunteers were collected from them and, as underwears for a […], subjected to the following analysis.
Until 10 a.m. on day 1, each volunteer was allowed to take a bath similarly as done on day 0. Just after bathing, they were allowed to wipe water drops on their body surfaces with towels, and sprayed by a sprayer over upper half parts of their bodies with a 2% (w/w) aqueous trehalose solution, which had been previously prepared and provided to the volunteers, followed by extending the solution to homogeneity over the upper half parts in such a manner of tapping on the surfaces of the parts with gauzes, which had been previously soaked in a fresh preparation of the same solution as above. By repeating the steps of spraying and extending for several times before natural dryness, trehalose was applied over the surfaces of upper half parts of the volunteers. Thereafter, the volunteers were allowed to wear new underwears prepared previously and to spend their daily life as usual.
Until about 10 a.m. on day 2, each volunteer was allowed to take a bath similarly as done on day 0. Just after bathing, the volunteers were applied with trehalose over the surfaces of their upper half parts similarly as done on day 1, then allowed to wear new underwears prepared previously and spend their daily life as usual.
At about 5 p.m. on day 3, the underwears worn by the volunteers were collected from the volunteers and, as underwears for a […], subjected to the following analysis.
The underwears collected from the volunteers in the control and test systems were instantly treated by the method in Experiment 7, followed by collecting in a column volatile aldehydes as DNPH derivatives from the underwears. The DNPH derivatives collected in the column were subjected to analysis according to the method in Experiment 7. Using as standard specimens 2-nonenal, 2-octenal, and 2-hexenal, they were separately subjected to GC analysis under the same conditions as above. Based on the gas chromatograms obtained from the above analyses, the contents (μg) of 2-nonenal, 2-octenal, and 2-hexenal, collected from the underwears in the test and control systems, were respectively determined. Respective data obtained from all the volunteers are in Table 8.
As shown in the data of the control system in Table 8, 2-nonenal, 2-octenal and 2-hexenal, known as substances causative of KAREI-SHU, were particularly detected in the underwears from volunteers age over 56. […]

[1] = individual volunteers A-P (age 48-75), 2% (w/w) aqueous trehalose solution on upper half of body

OC[C@H]1O[C@H](O[C@H]2O[C@H](CO)[C@@H](O)[C@H](O)[C@H]2O)[C@H](O)[C@@H](O)[C@@H]1O [Trehalose, trehalose]
Content of 2-Hexenal collected from volunteers' underwears, mean ± standard deviation, with trehalose application (Age 54 or under (n = 8), control 0.06 ± 0.18): 0.09 ± 0.24^ μg | Content of 2-Nonenal collected from volunteers' underwears, mean ± standard deviation, with trehalose application (Age 54 or under (n = 8), control 0.19 ± 0.21): 0.19 ± 0.40^ μg | Content of 2-Octenal collected from volunteers' underwears, mean ± standard deviation, with trehalose application (Age 54 or under (n = 8), control 1.00 ± 1.00, p < 0.05 to control): 0.21 ± 0.36^a μg | Total content of 2-nonenal, 2-octenal and 2-hexenal collected from volunteers' underwears, mean ± standard deviation, with trehalose application (Age 54 or under (n = 8), control 1.26 ± 1.02, p < 0.05 to control): 0.48 ± 0.50^a μg | Content of 2-Hexenal collected from volunteers' underwears, mean ± standard deviation, with trehalose application (Age 56 or higher (n = 8), control 5.44 ± 4.39, p < 0.05 to control): 0.71 ± 1.65^a μg | Content of 2-Octenal collected from volunteers' underwears, mean ± standard deviation, with trehalose application (Age 56 or higher (n = 8), control 5.51 ± 3.71, p < 0.05 to control): 2.59 ± 1.92^a μg | Content of 2-Nonenal collected from volunteers' underwears, mean ± standard deviation, with trehalose application (Age 56 or higher (n = 8), control 6.61 ± 3.75, p < 0.05 to control): 2.11 ± 1.87^a μg | Total content of 2-nonenal, 2-octenal and 2-hexenal collected from volunteers' underwears, mean ± standard deviation, with trehalose application (Age 56 or higher (n = 8), control 17.17 ± 10.14, p < 0.01 to control): 5.40 ± 4.66^b μg | Content of volatile aldehydes collected from volunteer, 2-Hexenal, with trehalose application (test system) [1]: 0.00 μg (13×) and 0.68 μg and 0.95 μg and 4.70 μg | Content of volatile aldehydes collected from volunteer, 2-Octenal, with trehalose application (test system) [1]: 0.24 μg and 0.28 μg and 1.04 μg and 0.00 μg (5×) and 1.82 μg and 1.07 μg and 2.59 μg and 1.13 μg and 5.43 μg and 4.24 μg and 4.42 μg and 0.11 μg | Content of volatile aldehydes collected from volunteer, Nonenal, with trehalose application (test system) [1]: 0.17 μg and 0.00 μg (6×) and 0.18 μg and 1.17 μg and 1.66 μg and 1.10 μg and 1.41 μg and 0.35 μg and 2.71 μg and 4.65 μg and 4.99 μg | Content of volatile aldehydes collected from volunteer, Total of 2-nonenal, 2-octenal and 2-hexenal, with trehalose application (test system) [1]: 0.41 μg and 0.97 μg and 1.04 μg and 0.18 μg and 1.17 μg and 3.48 μg and 1.10 μg and 1.07 μg and 4.96 μg and 1.47 μg and 8.14 μg and 8.89 μg and 14.12 μg and 0.00 μg (2×) and 0.11 μg
